Test results taken from the NIST ThermoML archive (doi:10.1021/je401118k).
± gives the expanded uncertainty stated by the source.

Experiment: mn = molality of the nth substance listed, in mol/kg
Conditions: for surface tension liquid-gas: Ring tensiometer; for electrical conductivity: 101 kPa, Liquid, Alternating current cell with electrodes

CC(=O)[O-].C[N+]1(CCC[Si](O[Si](C)(C)C)(O[Si](C)(C)C)O[Si](C)(C)C)CCCC1 + O
298.15 K
Conditions	surface tension liquid-gas [mN/m]
m1 = 1e-06	70.5 ± 0.9
m1 = 1e-05	58.2 ± 0.8
m1 = 0.0001	47.1 ± 0.6
m1 = 0.0002	42.4 ± 0.6
m1 = 0.0004	36.9 ± 0.5
m1 = 0.0006	32.1 ± 0.5
m1 = 0.0008	29.7 ± 0.4
m1 = 0.001	27.8 ± 0.4
m1 = 0.002	23.5 ± 0.4
m1 = 0.003	21.5 ± 0.4
m1 = 0.004	20.2 ± 0.4
m1 = 0.005	20 ± 0.4
m1 = 0.006	20 ± 0.4
m1 = 0.007	20 ± 0.4
m1 = 0.008	20 ± 0.4
m1 = 0.009	20 ± 0.4

C[N+]1(CCC[Si](O[Si](C)(C)C)(O[Si](C)(C)C)O[Si](C)(C)C)CCCC1.O=[N+]([O-])[O-] + O
Conditions	electrical conductivity, 288.15 K [S/m]	electrical conductivity, 293.15 K [S/m]	electrical conductivity, 298.15 K [S/m]	electrical conductivity, 303.15 K [S/m]	electrical conductivity, 308.15 K [S/m]	surface tension liquid-gas, 298.15 K [mN/m]
m1 = 1e-06	–	–	–	–	–	71.3 ± 1.2
m1 = 1e-05	–	–	–	–	–	67.8 ± 1.1
m1 = 0.0001	–	–	–	–	–	54.3 ± 0.9
m1 = 0.0006	–	–	–	–	–	42 ± 0.7
m1 = 0.0008	0.00614 ± 1e-05	0.00666 ± 1e-05	0.00734 ± 1e-05	0.00801 ± 1e-05	0.00864 ± 1e-05	–
m1 = 0.0009	0.00682 ± 1e-05	0.00744 ± 1e-05	0.00818 ± 1e-05	0.00894 ± 1e-05	0.00984 ± 1e-05	–
m1 = 0.001	0.00733 ± 1e-05	0.0081 ± 0.0001	0.00888 ± 1e-05	0.00967 ± 1e-05	0.01058 ± 1e-05	37.4 ± 0.7
m1 = 0.002	0.0143 ± 0.0001	0.01556 ± 1e-05	0.01717 ± 1e-05	0.01881 ± 1e-05	0.0212 ± 0.0001	33.3 ± 0.6
m1 = 0.003	0.0209 ± 0.0001	0.0231 ± 0.0001	0.0255 ± 0.0001	0.0279 ± 0.0001	0.0302 ± 0.0001	30.3 ± 0.6
m1 = 0.004	0.0264 ± 0.0001	0.0291 ± 0.0001	0.0321 ± 0.0001	0.0354 ± 0.0001	0.0388 ± 0.0001	27.6 ± 0.5
m1 = 0.005	0.0282 ± 0.0001	0.031 ± 0.0001	0.0348 ± 0.0001	0.0392 ± 0.0001	0.0438 ± 0.0001	26.1 ± 0.5
m1 = 0.006	0.03 ± 0.0001	0.0329 ± 0.0001	0.0367 ± 0.0001	0.0414 ± 0.0001	0.0466 ± 0.0001	25.1 ± 0.5
m1 = 0.007	0.0312 ± 0.0001	0.0343 ± 0.0001	0.0382 ± 0.0001	0.043 ± 0.0001	0.0486 ± 0.0001	24 ± 0.5
m1 = 0.008	0.0324 ± 0.0001	0.0354 ± 0.0001	0.0396 ± 0.0001	0.0447 ± 0.0001	0.0502 ± 0.0001	23.3 ± 0.5
m1 = 0.009	0.0335 ± 0.0001	0.0369 ± 0.0001	0.041 ± 0.0001	0.0464 ± 0.0001	0.0525 ± 0.0001	23 ± 0.4
m1 = 0.01	–	–	–	–	–	22.4 ± 0.4
m1 = 0.015	–	–	–	–	–	21.4 ± 0.4
m1 = 0.02	–	–	–	–	–	21.2 ± 0.4
m1 = 0.025	–	–	–	–	–	21.3 ± 0.4
m1 = 0.03	–	–	–	–	–	21.2 ± 0.4
